# Test results taken from patent publication US20230295140A1, “INHIBITORS OF VAP-1” (Acucela Inc., priority 2021, published 2023).
# Counter-ions that a name gives are not always drawn.
# Columns and labels:
# Assay type in all cases: biochemical
# rhMAO-B = rhMAO-B (Homo sapiens (Human), UniProt P27338); experiment: MAO-Glo assay, MAO-B inhibition
# Method: (§1) The capability of compounds described herein to inhibit MAO was determined using a modified Promega MAO-Glo™ assay kit. The substrate ((4S)-4,5-dihydro-2-(6-hydroxybenzothiazolyl)-4-thiazolecarboxylic acid) was converted by MAO to produce methyl ester luciferin. The luciferin was then converted by luciferase to produce oxyluciferin and light. The light was measured using a luminescence setting on the plate reader. A standard curve was prepared by serially diluting luciferin in reaction buffer. The standard kit reaction buffer was used—100 mM HEPES (pH 7.5), 5% glycerol. The substrate was dispensed into the wells so that the final concentration for MAO-A inhibition assay would be 10 μM and MAO-B inhibition assay would be […]. Inhibitors were diluted in DMSO to 4× and distributed to the appropriate wells. Clorgyline and Deprenyl served as positive controls. rhMAO-A and rhMAO-B were purchased from Sigma. MAO-A or MAO-B was added to the appropriate wells. The plate was incubated for 1 hour, at room temperature with gentle shaking (90 rpm). The detection agent was added at equal volume (48 μL detection agent to 48 μL reaction). The plate was incubated for 20 minutes, at room temperature with gentle shaking (90 rpm). The plate luminescence was read. Data processing was performed using Prism software.
# (§2) The capability of compounds described herein to inhibit MAO was determined using a modified Promega MAO-Glo™ assay. Test compounds, substrate and enzyme were incubated per manufacturer instructions for 1 hour, at room temperature with gentle shaking (90 rpm) before addition of detection agent. The detection agent was added at equal volume (48 μL detection agent to 48 μL reaction). The plate was incubated for 20 minutes, at room temperature with gentle shaking (90 rpm). The plate luminescence was read. Data processing was performed using Prism software.
# rhMAO-A = rhMAO-A (Homo sapiens (Human), UniProt P21397); experiment: MAO-Glo assay, MAO-A inhibition
# rhMAO-A, sequence (P21397 whole entry): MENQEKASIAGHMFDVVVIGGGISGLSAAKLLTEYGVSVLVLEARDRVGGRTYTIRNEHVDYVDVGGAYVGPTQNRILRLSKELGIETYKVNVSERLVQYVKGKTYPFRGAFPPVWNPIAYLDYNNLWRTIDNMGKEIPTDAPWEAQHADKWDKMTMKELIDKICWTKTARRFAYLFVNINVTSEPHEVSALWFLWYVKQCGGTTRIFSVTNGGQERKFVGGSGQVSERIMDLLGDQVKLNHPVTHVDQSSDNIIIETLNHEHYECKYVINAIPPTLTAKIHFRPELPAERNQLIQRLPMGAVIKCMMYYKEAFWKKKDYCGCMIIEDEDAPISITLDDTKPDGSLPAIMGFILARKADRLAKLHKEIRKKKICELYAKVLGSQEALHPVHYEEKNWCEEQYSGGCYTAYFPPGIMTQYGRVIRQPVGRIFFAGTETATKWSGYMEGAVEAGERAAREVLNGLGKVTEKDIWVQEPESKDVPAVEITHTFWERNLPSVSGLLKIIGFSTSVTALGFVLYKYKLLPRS
# Method: as §1, §2
# rhVAP-1 = rhVAP-1 (Homo sapiens (Human), UniProt Q16853); experiment: VAP-1 fluorometric assay (Amplex Red/HRP, benzylamine substrate); details: class symbols, ranges defined in μM
# rhVAP-1, sequence (Q16853 whole entry): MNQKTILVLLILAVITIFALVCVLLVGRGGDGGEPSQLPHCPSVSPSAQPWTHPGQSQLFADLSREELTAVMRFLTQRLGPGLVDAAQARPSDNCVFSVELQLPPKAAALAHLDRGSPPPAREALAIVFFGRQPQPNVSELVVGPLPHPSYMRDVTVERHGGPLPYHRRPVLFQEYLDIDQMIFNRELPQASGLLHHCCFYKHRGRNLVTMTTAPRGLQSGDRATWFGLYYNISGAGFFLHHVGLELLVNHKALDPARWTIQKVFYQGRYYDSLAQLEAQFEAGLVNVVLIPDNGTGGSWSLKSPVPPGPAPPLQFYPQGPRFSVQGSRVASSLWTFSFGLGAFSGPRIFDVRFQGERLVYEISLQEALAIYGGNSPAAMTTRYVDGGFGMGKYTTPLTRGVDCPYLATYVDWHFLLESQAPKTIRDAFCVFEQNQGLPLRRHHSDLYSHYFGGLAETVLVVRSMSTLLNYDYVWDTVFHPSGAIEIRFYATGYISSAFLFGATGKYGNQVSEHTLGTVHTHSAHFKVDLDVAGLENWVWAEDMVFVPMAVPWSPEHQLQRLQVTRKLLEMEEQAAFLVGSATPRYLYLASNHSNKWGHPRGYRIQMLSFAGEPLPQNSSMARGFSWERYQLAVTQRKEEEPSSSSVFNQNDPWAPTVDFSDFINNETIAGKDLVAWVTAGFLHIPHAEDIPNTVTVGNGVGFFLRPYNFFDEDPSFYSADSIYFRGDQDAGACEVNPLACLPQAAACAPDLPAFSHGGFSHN
# Method: The capability of compounds described herein to inhibit the enzymatic activity of vascular adhesion protein-1 (VAP-1) was determined by fluorometric assay. The assay procedure provided by R&D Systems was modified slightly for use as an inhibitor screening assay. The assay measured the H2O2 generated from the oxidative deamination of benzylamine by rhVAP-1 by converting Amplex® Red to the fluorescent product, resorufin, via horseradish peroxidase (HRP) and H2O2. Reaction buffer was 10 mM NaHCO3, pH 7.4. A standard curve was prepared by serially diluting H2O2 in reaction buffer. A 10 μM solution of resorufin was prepared in reaction buffer and was dispensed to 2 wells. These wells served as positive control for maximum fluorescence. Reaction buffer was added to the individual wells so that the final volume in each well was 100 μL. Amplex Red was diluted to 1 mM in reaction buffer. A 10 U stock of HRP was prepared in reaction buffer. A reaction cocktail was prepared by mixing equal parts 1 mM Amplex Red with 10 U HRP with 3 parts reaction buffers. The reaction cocktail was added to the appropriate wells, so that that final concentration in the well was 0.05 mM Amplex Red and 0.5 U HRP. A 200 μM solution of benzylamine was prepared in reaction buffer. Benzylamine was added to the appropriate wells so that the final concentration was 50 μM. Inhibitors were diluted in DMSO to 20× and distributed to the appropriate wells. LJP-1207 served a positive control. rhVAP-1 was purchased from R&D Systems. The concentration used for each lot was determined so that the activity was equal to the first lot. Two wells were left blank as controls. The plate was incubated for 30 minutes at 37° C., protected from light under foil. The plate was read at 530/35 emission and 590/35 excitation. Data processing was performed using Excel and Prism software.
# The capability of compounds described herein to inhibit the enzymatic activity of vascular adhesion protein-1 (VAP-1) was determined by fluorometric assay. The assay procedure provided by R&D Systems was modified slightly for use as an inhibitor screening assay. The assay measured the H2O2 generated from the oxidative deamination of benzylamine by rhVAP-1 by converting Amplex® Red to the fluorescent product, resorufin, via horseradish peroxidase (HRP) and H2O2. Amplex Red, HRP, Benzylamine, inhibitors (with DMSO as vehicle, 0.5% v/v) and rhVAP-1 were added to the wells. Assay was conducted in 10 mM NaHCO3, pH 7.4. A standard curve was prepared by serially diluting H2O2 in reaction buffer. The plate was incubated for 30 minutes at 37° C., protected from light under foil. The plate was read at 530/35 emission and 590/35 excitation. Data processing was performed using Prism software.
# [1] = class symbols, ranges defined in μM
# rhMAO-B, sequence (P27338 whole entry): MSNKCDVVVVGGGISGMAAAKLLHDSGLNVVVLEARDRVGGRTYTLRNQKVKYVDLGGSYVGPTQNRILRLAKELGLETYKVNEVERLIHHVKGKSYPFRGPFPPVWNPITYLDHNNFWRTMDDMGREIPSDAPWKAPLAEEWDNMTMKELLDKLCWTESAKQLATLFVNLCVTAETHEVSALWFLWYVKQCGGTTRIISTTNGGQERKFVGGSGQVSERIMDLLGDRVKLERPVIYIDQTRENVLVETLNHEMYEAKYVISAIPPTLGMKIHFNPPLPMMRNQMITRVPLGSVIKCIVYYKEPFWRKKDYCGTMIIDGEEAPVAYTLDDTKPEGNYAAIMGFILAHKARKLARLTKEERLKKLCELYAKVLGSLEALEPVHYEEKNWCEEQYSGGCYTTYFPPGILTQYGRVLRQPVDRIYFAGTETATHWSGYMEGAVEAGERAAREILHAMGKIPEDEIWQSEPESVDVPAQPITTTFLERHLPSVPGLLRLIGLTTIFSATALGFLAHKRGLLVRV
IC50 (rhMAO-B; [1]) [µM],IC50 (rhMAO-A; [1]) [µM],IC50 (rhVAP-1) [µM],IC50 (rhMAO-B; bound printed in cell) [µM],IC50 (rhMAO-A; bound printed in cell) [µM],SMILES
0.1 to 1,10 to 30,< 0.1,,,"CCCNc1nc2ccc(OC/C(=C/F)CN)c(F)c2o1 [Example 6, (E)-6-((2-(aminomethyl)-3-fluoroallyl)oxy)-7-fluoro-N-propylbenzo[d]oxazol-2-amine]"
< 0.1,< 0.1,< 0.1,,,"CCCCc1nc2ccc(OC/C(=C/F)CN)c(Br)c2s1 [Example 7, (E)-2-(((7-bromo-2-butylbenzo[d]thiazol-6-yl)oxy)methyl)-3-fluoroprop-2-en-1-amine]"
1 to 10,1 to 10,< 0.1,,,"CCCNc1nc2ccc(OC/C(=C\F)CN)cc2s1 [Example 12, (Z)-6-((2-(aminomethyl)-3-fluoroallyl)oxy)-N-propylbenzo[d]thiazol-2-amine 4-methylbenzenesulfonate]"
,,0.1 to 1,,,"CCCCc1nc2ccc(OC/C(F)=C\CN)cc2o1 [Example 16, (E)-4-((2-butylbenzo[d]oxazol-6-yl)oxy)-3-fluorobut-2-en-1-amine]"
0.1 to 1,10 to 30,< 0.1,,,"CCCCc1nc2ccc(NC/C(=C/F)CN)cc2o1 [Example 17, (E)-N1-(2-butylbenzo[d]oxazol-6-yl)-2-(fluoromethylene)propane-1,3-diamine]"
0.1 to 1,1 to 10,< 0.1,,,"CCCCc1nc2ccc(CC(=CF)CN)cc2o1 [Example 18, 2-((2-butylbenzo[d]oxazol-6-yl)methyl)-3-fluoroprop-2-en-1-amine]"
0.1 to 1,1 to 10,< 0.1,,,"CCCCc1nc2ccc(OC/C(=C\F)CN)cc2o1 [Example 19, (Z)-2-(((2-butylbenzo[d]oxazol-6-yl)oxy)methyl)-3-fluoroprop-2-en-1-amine 4-methylbenzenesulfonate]"
1 to 10,10 to 30,< 0.1,,,"CCCCc1nc2ccc(N(C)C/C(=C/F)CN)cc2o1 [Example 20, (E)-N1-(2-butylbenzo[d]oxazol-6-yl)-2-(fluoromethylene)-N1-methylpropane-1,3-diamine]"
0.1 to 1,10 to 30,< 0.1,,,"NC/C(=C\F)COc1ccc2nc(NCc3ccccc3)oc2c1 [Example 21, (E)-6-((2-(aminomethyl)-3-fluoroallyl)oxy)-N-benzylbenzo[d]oxazol-2-amine 4-methylbenzenesulfonate]"
,,< 0.1,,,"CCCCc1nc2ccc(CCC(=CF)CN)cc2o1 [Example 52, 4-(2-butylbenzo[d]oxazol-6-yl)-2-(fluoromethylene)butan-1-amine 4-methylbenzenesulfonate]"
,,0.1 to 1,,,"CCCCc1nc2ccc(/C=C(/F)CN)cc2o1 [Example 95, (E)-3-(2-butylbenzo[d]oxazol-6-yl)-2-fluoroprop-2-en-1-amine]"

# Continued, compound first:
SMILES,IC50 (rhMAO-B; [1]) [µM],IC50 (rhMAO-A; [1]) [µM],IC50 (rhVAP-1) [µM],IC50 (rhMAO-B; bound printed in cell) [µM],IC50 (rhMAO-A; bound printed in cell) [µM]
"CCCCc1nc2ccc(OC/C(=C/F)CN)cc2o1 [Example 1, (E)-2-(((2-butylbenzo[d]oxazol-6-yl)oxy)methyl)-3-fluoroprop-2-en-1-amine 4-methylbenzenesulfonate]",< 0.1,< 0.1,< 0.1,,
"CCCCc1nc2ccc(OC/C(=C/F)CN)c(F)c2o1 [Example 2, (E)-2-(((2-butyl-7-fluorobenzo[d]oxazol-6-yl)oxy)methyl)-3-fluoroprop-2-en-1-amine]",< 0.1,10 to 30,< 0.1,,
"CCCCc1nc2ccc(OC/C(=C/F)CN)cc2s1 [Example 3, (E)-2-(((2-butylbenzo[d]thiazol-6-yl)oxy)methyl)-3-fluoroprop-2-en-1-amine]",< 0.1,1 to 10,< 0.1,,
"CCCNc1nc2ccc(OC/C(=C/F)CN)cc2s1 [Example 4, (E)-6-((2-(aminomethyl)-3-fluoroallyl)oxy)-N-propylbenzo[d]thiazol-2-amine]",0.1 to 1,10 to 30,< 0.1,,
"CCCNc1nc2ccc(OC/C(=C/F)CN)cc2o1 [Example 5, (E)-6-((2-(aminomethyl)-3-fluoroallyl)oxy)-N-propylbenzo[d]oxazol-2-amine]",0.1 to 1,10 to 30,< 0.1,,
"CCCCc1nc2cc(OC/C(=C/F)CN)ccc2o1 [Example 8, (E)-2-(((2-butylbenzo[d]oxazol-5-yl)oxy)methyl)-3-fluoroprop-2-en-1-amine 4-methylbenzenesulfonate]",< 0.1,1 to 10,< 0.1,,
"CCCCn1oc2cc(OC/C(=C/F)CN)ccc2c1=O [Example 9, (E)-6-((2-(aminomethyl)-3-fluoroallyl)oxy)-2-butylbenzo[d]isoxazol-3(2H)-one 4-methylbenzenesulfonate]",1 to 10,10 to 30,< 0.1,,
"CCCCc1nc2ccc(OC/C(=C/F)CN)c(C)c2o1 [Example 10, (E)-2-(((2-butyl-7-methylbenzo[d]oxazol-6-yl)oxy)methyl)-3-fluoroprop-2-en-1-amine]",< 0.1,1 to 10,0.1 to 1,,
"CCCCc1nc2cc(OC/C(=C/F)CN)ccc2n1C [Example 11, (E)-2-(((2-butyl-1-methyl-1H-benzo[d]imidazol-5-yl)oxy)methyl)-3-fluoroprop-2-en-1-amine]",,,< 0.1,> 50,> 50
"CCCCc1nc2ccc(OC/C(=C/F)CN)cc2[nH]1 [Example 13, (E)-2-(((2-butyl-1H-benzo[d]imidazol-6-yl)oxy)methyl)-3-fluoroprop-2-en-1-amine 4-methylbenzenesulfonate]",1 to 10,,< 0.1,,> 50
"CCCNc1nc2ccc(OC/C(=C\F)CN)c(F)c2s1 [Example 14, (Z)-6-((2-(aminomethyl)-3-fluoroallyl)oxy)-7-fluoro-N-propylbenzo[d]thiazol-2-amine 4-methylbenzenesulfonate]",1 to 10,1 to 10,< 0.1,,
"CCCCc1nc2ccc(OC/C(=C\F)CN)c(F)c2s1 [Example 15, (Z)-2-(((2-butyl-7-fluorobenzo[d]thiazol-6-yl)oxy)methyl)-3-fluoroprop-2-en-1-amine 4-methylbenzenesulfonate]",< 0.1,,< 0.1,,
"CCCCc1nc2ccc(SC/C(=C/F)CN)cc2o1 [Example 22, (E)-2-(((2-butylbenzo[d]oxazol-6-yl)thio)methyl)-3-fluoroprop-2-en-1-amine 4-methylbenzenesulfonate]",0.1 to 1,10 to 30,< 0.1,,
"NC/C(=C\F)COc1ccc2nc(NCc3ccncc3)oc2c1 [Example 23, (E)-6-((2-(aminomethyl)-3-fluoroallyl)oxy)-N-(pyridin-4-ylmethyl)benzo[d]oxazol-2-amine 4-methylbenzenesulfonate]",1 to 10,10 to 30,< 0.1,,
"C=C(CN)C(F)(F)Oc1ccc2nc(CCCC)oc2c1 [Example 29, 2-(((2-butylbenzo[d]oxazol-6-yl)oxy)difluoromethyl)prop-2-en-1-amine hydrochloride]",,,0.1 to 1,,
